According to patent US8809278B2, “Cyclic tetrapeptides” (University of Kansas, priority 2008, dated 2014):
“Also recorded” adds a separate entry of the source. Like-named read-outs stand apart in the source and are kept apart here. Where a SMILES comes first, the peptide text is derived from it.

Assays:
κ opioid receptors (KOR) = assay type: binding; details: for Ki: [3H]diprenorphine
Description: (§1) Opioid receptor affinities were determined for the cyclic tetrapeptides using Chinese hamster ovary cells stably expressing κ, μ and δ opioid receptors, and their efficacies at κ opioid receptors were determined in the adenylyl cyclase assay as previously described (Arttamangkul, et al., J. Med. Chem. 1997, 40, 1211-1218; Soderstrom, et al., Eur. J. Pharmacol. 1997, 338, 191-197). [^3H]Diprenorphine, [^3H][D-Ala^2,NMePhe^4,glyol]enkephalin and [^3H]cyclo[D-Pen^2,D-Pen^5]enkephalin were used as the radioligands in the binding assays for κ, μ and δ opioid receptors, respectively. In the adenylyl cyclase assay, the efficacies were determined by measuring the inhibition of adenylyl cyclase by 10 μM of the peptides relative to dynorphin A-(1-13) amide (100%).
(§2) The study was done using [^3H]diprenorphine, [^3][D-Ala^2,NMePhe^4,glyol]enkephalin and [^3H]cyclo[D-Pen^2,D-Pen^5]enkephalin binding to CHO membranes expressing KOR, MOR and DOR, respectively.

μ opioid receptors (MOR) = biological target: T1, μ opioid receptors (MOR) (Rattus norvegicus, UniProt P33535); assay: Radioligand binding, μ opioid receptor, CHO cells ([3H][D-Ala2,NMePhe4,glyol]enkephalin)
T1 construct: expressed in transfected cells
Description: as §1, §2

δ opioid receptors (DOR) = biological target: T2, δ opioid receptors (DOR) (Mus musculus, UniProt P32300); assay: Radioligand binding, δ opioid receptor, CHO cells ([3H]cyclo[D-Pen2,D-Pen5]enkephalin)
T2 construct: expressed in transfected cells
Description: as §1, §2

κ opioid receptors = biological target: T3, κ opioid receptors (Rattus norvegicus, UniProt P34975); assay: Adenylyl cyclase assay (efficacy at κ opioid receptors); assay type: cell-based; details: 10 μM peptide; relative to dynorphin A-(1-13) amide (100%)
T3 construct: expressed in transfected cells
Description: as §1

C57B1/6J mice [1] = assay: 55° C. warm-water tail-withdrawal assay, agonist (antinociceptive) activity; assay type: in vivo, mouse; details: for agonist activity in the 55° C. warm water tail withdrawal assay: i.c.v. administration; for pattern of opioid activity in vivo: tail-withdrawal assay
Description: (§3) An antinociceptive (analgesic) assay was performed to test the KOR agonist activity of cyclic tetrapeptides cyclo[Trp-Phe-D-Pro-Phe] […] After determining baseline tail-withdrawal latencies, mice received a single intracerebroventricular (i.c.v.) dose of vehicle (artificial cerebrospinal fluid, 146 mM NaCl, 2.7 mM KCl, 1.2 mM, CaCl2, 1.0 mM MgCl2) or a dose of test compound i.c.v. and the tail-withdrawal latency was again measured. For i.c.v. injections, each mouse was lightly anesthetized with isoflurane, an incision was made in the scalp, and the injection was made 2 mm lateral and 2 mm caudal to bregma at a depth of 3 mm directly into the lateral ventricle, as detailed previously (McLaughlin et al., 1999). The volume of these injections was 5 μl, using a 10-μl Hamilton microliter syringe. Reference agonists and antagonists were administered either subcutaneously (s.c.) or interperitoneally (i.p.) in 0.9% saline at the doses and times indicated in the figure legends (negative numbers indicate time prior to tail-withdrawal assay).

KOR = biological target: T4, KOR (Mus musculus, UniProt P33534); assay: 55° C. warm-water tail-withdrawal assay, antagonism of the KOR selective agonist U50,488; assay type: in vivo; details: for duration of KOR antagonist activity: mice, tail-withdrawal assay; for antagonism of the KOR selective agonist U50,488: tested 2-2.5 hours after peptide administration, i.c.v.
T4 construct: from tissue; host or cells: living C57Bl/6J mice (in vivo)
Description: as §3
The ability of the cyclic tetrapeptides to function as KOR antagonists were studied by assessing the ability to antagonize the KOR selective agonist U50,488. […] Briefly, the antagonistic activity was tested 2-2.5 hours after peptide administration.
The duration of KOR antagonism of the cyclic tetrapeptides was studied.

MOR = biological target: T5, MOR (Mus musculus, UniProt P42866); assay: 55° C. warm-water tail-withdrawal assay, antagonism of the MOR selective agonist morphine; assay type: in vivo; details: mice
T5 construct: from tissue; host or cells: living C57Bl/6J mice (in vivo)
Description: as §3
(§4) The ability of JVA-2802 to selectively antagonize an opioid receptor was studied. Briefly, the antagonistic activity of JVA-2802 was studied for MOR, DOR, and KOR activity by the ability to antagonize the MOR selective agonist morphine, the DOR selective agonist SNC-80, and the KOR selective agonist U50,488.

DOR = biological target: T6, DOR (Mus musculus, UniProt P32300); assay: 55° C. warm-water tail-withdrawal assay, antagonism of the DOR selective agonist SNC-80; assay type: in vivo; details: mice
T6 construct: from tissue; host or cells: living C57Bl/6J mice (in vivo)
Description: as §3, §4

C57B1/6J mice [2] = assay: Stress-induced reinstatement of cocaine conditioned place preference; assay type: in vivo, mouse; details: 3 nmol i.c.v. 40 minutes prior to forced swim stress
Description: The establishment of cocaine conditioned place preference (CPP), extinction and stress-induced reinstatement of cocaine CPP were preformed in C57B1/6J mice as previously described (Carey, A. N.; Borozny, K.; Aldrich, J. V.; McLaughlin, J. P. Reinstatement of cocaine place-conditioning prevented by the peptide kappa-opioid receptor antagonist arodyn. Eur. J. Pharmacol. 2007, 569, 84-89). […] Place conditioning subsequently began immediately following cocaine administration (10 mg/kg s.c), whereupon mice were consistently confined for 30 min in the appropriate compartment in the CPP apparatus. Conditioning with assay vehicle (0.9% saline) followed 4 hours later in a similar manner, but paired to the opposite chamber. This conditioning cycle was repeated once on each of four days. On the fifth day, mice were again allowed to freely move through the apparatus. […]
One group of animals was then subjected to a 2-day forced swim stress protocol (with a single long swim (15 minutes) on day 1, and a series of four 6-minutes trials on day 2) to produce reinstatement of cocaine CPP. […] One hour after the final exposure to forced swim stress, the place preference responses of the mice were determined as described above to determine possible reinstatement of cocaine CPP (FIG. 6, middle panel). […]

KOR in mouse brain = biological target: T7, KOR in mouse brain (Mus musculus, UniProt P33534); assay: Affinity for KOR in mouse brain; assay type: binding
T7 construct: from tissue; host or cells: mouse brain

[3] = test system: kappa-opioid receptor (KOR); details: literature reports; cited from earlier work
[4] = CHO cells stably expressing κ receptors, (n) in brackets, read-out: Ki (nM ± SEM) κ
[5] = CHO membranes expressing KOR, read-out: KOR Ki
[6] = CHO membranes expressing MOR, read-out: MOR Ki
[7] = CHO cells stably expressing δ receptors, (n) in brackets, read-out: Ki (nM ± SEM) δ
[8] = CHO membranes expressing DOR, read-out: DOR Ki
[9] = CHO cells stably expressing μ receptors, (n) in brackets, read-out: Ki (nM ± SEM) μ

T4 sequence (P33534 whole entry): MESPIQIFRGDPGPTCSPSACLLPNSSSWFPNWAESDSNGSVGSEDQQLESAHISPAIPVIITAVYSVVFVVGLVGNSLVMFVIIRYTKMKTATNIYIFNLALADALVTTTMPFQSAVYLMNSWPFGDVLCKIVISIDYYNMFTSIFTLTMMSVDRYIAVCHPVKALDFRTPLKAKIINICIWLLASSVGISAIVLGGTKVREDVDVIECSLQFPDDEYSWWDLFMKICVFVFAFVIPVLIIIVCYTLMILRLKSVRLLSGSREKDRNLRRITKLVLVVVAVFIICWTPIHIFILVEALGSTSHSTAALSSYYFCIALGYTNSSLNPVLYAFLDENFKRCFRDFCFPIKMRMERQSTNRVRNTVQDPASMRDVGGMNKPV
T1 sequence (P33535 whole entry): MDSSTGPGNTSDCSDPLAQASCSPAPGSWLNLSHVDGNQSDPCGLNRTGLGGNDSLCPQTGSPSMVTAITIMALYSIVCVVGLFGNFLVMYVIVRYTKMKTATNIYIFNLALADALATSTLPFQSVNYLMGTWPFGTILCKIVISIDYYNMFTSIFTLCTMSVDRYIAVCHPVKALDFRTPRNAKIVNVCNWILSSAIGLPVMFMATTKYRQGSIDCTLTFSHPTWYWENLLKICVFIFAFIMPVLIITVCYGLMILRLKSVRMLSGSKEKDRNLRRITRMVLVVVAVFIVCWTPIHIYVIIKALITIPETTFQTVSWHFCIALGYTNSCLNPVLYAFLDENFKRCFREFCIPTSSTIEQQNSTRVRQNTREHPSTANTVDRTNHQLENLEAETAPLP
T2 sequence (P32300 whole entry): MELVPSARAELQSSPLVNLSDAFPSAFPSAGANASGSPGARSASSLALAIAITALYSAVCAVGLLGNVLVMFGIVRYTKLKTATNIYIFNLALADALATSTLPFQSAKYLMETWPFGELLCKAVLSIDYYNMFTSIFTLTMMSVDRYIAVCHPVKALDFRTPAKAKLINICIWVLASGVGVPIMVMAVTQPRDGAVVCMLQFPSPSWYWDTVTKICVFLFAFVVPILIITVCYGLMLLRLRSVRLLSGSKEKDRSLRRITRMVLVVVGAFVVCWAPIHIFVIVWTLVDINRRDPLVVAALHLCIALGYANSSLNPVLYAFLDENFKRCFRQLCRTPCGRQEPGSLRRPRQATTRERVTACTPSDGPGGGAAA
T3 sequence (P34975 whole entry): as the sequence (P33534 whole entry) above, with D11E, S17A, S51P, A308V counted along it
T7 sequence (P33534 whole entry): as the sequence (P33534 whole entry) above
T6 sequence (P32300 whole entry): as the sequence (P32300 whole entry) above
T5 sequence (P42866 whole entry): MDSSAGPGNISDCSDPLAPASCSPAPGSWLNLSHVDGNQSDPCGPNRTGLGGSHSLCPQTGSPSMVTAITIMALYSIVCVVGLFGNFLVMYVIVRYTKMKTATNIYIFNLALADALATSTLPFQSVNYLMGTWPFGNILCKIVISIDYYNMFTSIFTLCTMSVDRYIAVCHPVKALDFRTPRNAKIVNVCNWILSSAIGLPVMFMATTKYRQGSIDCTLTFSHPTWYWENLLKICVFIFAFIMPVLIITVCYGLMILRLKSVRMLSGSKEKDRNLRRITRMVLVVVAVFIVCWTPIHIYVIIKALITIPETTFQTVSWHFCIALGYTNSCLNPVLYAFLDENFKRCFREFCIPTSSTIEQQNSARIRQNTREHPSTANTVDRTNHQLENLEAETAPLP

Structure (SMILES)	Ki (κ opioid receptors (KOR); [4]) [nM]	Ki (κ opioid receptors (KOR); [5]) [nM]	Ki (μ opioid receptors (MOR); [6]) [nM]	Ki (δ opioid receptors (DOR); [7]) [nM]	Ki (δ opioid receptors (DOR); [8]) [nM]	Cyclase screen (% control) (κ opioid receptors) [%]	agonist activity in the 55° C. warm water tail withdrawal assay (C57B1/6J mice [1])	duration of KOR antagonist activity (KOR)	antagonism of the KOR selective agonist U50,488 (KOR)	Ki (μ opioid receptors (MOR); [9]) [nM]	also measured
C[C@@H]1NC(=O)[C@@H](Cc2c[nH]c3ccccc23)NC(=O)[C@H](Cc2ccccc2)NC(=O)[C@H]2CCCN2C1=O [JVA-3003, cyclo[D-Trp-Ala-D-Pro-Phe]] (HELM PEPTIDE1{A.[dP].F.[dW]}$PEPTIDE1,PEPTIDE1,1:R1-4:R2$$$V2.0)	3.15 ± 0.41	2.81	27.3	8330 ± 1220	833	75	can function as an agonist; also recorded: robust agonist activity	less than a day	exhibits KOR antagonist activity		pattern of opioid activity in vivo (C57B1/6J mice [1]): exhibits a pattern similar to the L-Trp peptides
O=C1N[C@H](Cc2c[nH]c3ccccc23)C(=O)N[C@@H](Cc2ccccc2)C(=O)N2CCC[C@@H]2C(=O)N[C@H]1Cc1ccccc1 [JVA-2802, cyclo[D-Trp-Phe-D-Pro-Phe]] (HELM PEPTIDE1{F.[dP].F.[dW]}$PEPTIDE1,PEPTIDE1,1:R1-4:R2$$$V2.0)	30.6 ± 3.4			2910 ± 1350		127	did not show any agonist activity; also recorded: did not exhibit any agonist activity	less than a day	dose-dependent antagonism	259 ± 29	antagonism of the MOR selective agonist morphine (MOR): does not antagonize; antagonism of the DOR selective agonist SNC-80 (DOR): does not antagonize; stress-induced reinstatement of cocaine conditioned place preference (C57B1/6J mice [2]): blocks stress-induced reinstatement
O=C1N[C@@H](Cc2ccccc2)C(=O)N2CCC[C@@H]2C(=O)N[C@@H](Cc2ccccc2)C(=O)N[C@H]1Cc1c[nH]c2ccccc12 [JVA-2801, cyclo[Trp-Phe-D-Pro-Phe]] (HELM PEPTIDE1{F.W.F.[dP]}$PEPTIDE1,PEPTIDE1,1:R1-4:R2$$$V2.0)	35.4 ± 3.6			4150 ± 3020		119	can function as agonists; also recorded: robust agonist activity		dose-dependent antagonism	619 ± 87	reversal of agonist activity by the KOR selective antagonist nor-BNI (C57B1/6J mice [1]; i.c.v. peptide): partially reversed; reversal of agonist activity by the MOR selective antagonist β-FNA (C57B1/6J mice [1]; i.c.v. peptide): completely reversed; Ki (KOR in mouse brain): ~21 nM
C[C@@H]1C(=O)N[C@@H](Cc2ccccc2)C(=O)N[C@H](Cc2c[nH]c3ccccc23)C(=O)N[C@@H](Cc2ccccc2)C(=O)N1C [JVA 3001] (HELM PEPTIDE1{F.[C[C@H](C(=O)[*:2])N(C)[*:1]].F.[dW]}$PEPTIDE1,PEPTIDE1,1:R1-4:R2$$$V2.0)		68.9	58.1		5690						
C[C@@H]1NC(=O)[C@H]2CCCN2C(=O)[C@H](Cc2ccccc2)NC(=O)[C@@H](Cc2c[nH]c3ccccc23)NC1=O [JVA 3004] (HELM PEPTIDE1{A.[dW].F.[dP]}$PEPTIDE1,PEPTIDE1,1:R1-4:R2$$$V2.0)		169	186		18000						
C[C@@H]1NC(=O)[C@H](Cc2c[nH]c3ccccc23)NC(=O)[C@H](Cc2ccccc2)NC(=O)[C@H]2CCCN2C1=O [JVA-2803, cyclo[Trp-Ala-D-Pro-Phe]] (HELM PEPTIDE1{A.[dP].F.W}$PEPTIDE1,PEPTIDE1,1:R1-4:R2$$$V2.0)	8.03 ± 1.67			8680 ± 1270		122	can function as agonists; also recorded: more potent than JVA-2801	less than a day	more potent than JVA-2801	32.1 ± 3.9	fold higher KOR affinity than the parent peptide (κ opioid receptors (KOR); relative to parent (Phe) peptide / CJ-15,208): 4 fold; fold higher MOR affinity than JVA-2801 (μ opioid receptors (MOR); relative to JVA-2801): 19 fold; pattern of opioid activity in vivo (C57B1/6J mice [1]): exhibit both agonist activity and KOR antagonist activity; antagonism of the KOR selective agonist U50,488 (KOR; listed as 2803): exhibits KOR antagonist activity
C[C@H]1NC(=O)[C@H](Cc2ccccc2)NC(=O)[C@H]2CCCN2C(=O)[C@H](Cc2ccccc2)NC1=O [JVA 3002]		1250	774		11000						
CC(C)[C@@H](CN1CC[C@@](C)(c2cccc(O)c2)[C@@H](C)C1)NC(=O)[C@H]1Cc2ccc(O)cc2CN1 [JDTic]											stress-induced reinstatement of cocaine-seeking behavior [3]: block stress-induced reinstatement
